Test: Tissue distribution by quantitative whole-body autoradiography (QWBA)
Assay type: in vivo, male Sprague Dawley and Long-Evans rats
Settings: PO 15 mg/kg, Group 7
Procedure: The study utilized 4 groups of male SD rats (albino), and 3 groups of male LE rats (pigmented); a total of 39 rats. All animals were obtained from Hilltop Lab Animals, Inc. (Scottdale, Pa.). […] Rats in Group 5 were administered a single 2-h IV infusion of [^14C]brincidofovir at a target dose of 2 mg/kg. […] Three dosing formulations (one for high dose IV, one for low dose IV, and one for PO dose) were prepared at QPS on the day of dosing. The IV formulation for Groups 1, 2, 3, and 4 contained a vehicle of 10 mM sodium phosphate buffer in 5% dextrose solution at pH 8.0(±0.1).
Each animal, at their respective termination time points, was euthanized for QWBA analysis immediately after blood collection. One rat per time point per Group was euthanized as listed below.
The blood samples were maintained on wet ice (approximately 4° C.) and then centrifuged to obtain plasma within 1 h of the blood collection time. Centrifuge settings were recorded in the study notebook. Duplicate aliquots of plasma (0.050 mL) were analyzed for radioactivity using direct counting by LSC, and residual plasma was stored at approximately −70° C. and was saved for possible future analysis under a separate study protocol. Residual red blood cells were discarded as radioactive waste.
The pinna, distal limbs, hair, and tail were removed from each frozen carcass and each frozen carcass was embedded in an aqueous suspension of approximately 2% (w/v) carboxymethylcellulose and frozen into a block. The blocks were stored at approximately −20° C. prior to sectioning. Each blocked carcass was mounted on the object stage of a cryomicrotome (Leica CM3600 Cryomacrocut, Nussloch, Germany and Vibratome 9800, St. Louis, Mo.) maintained at approximately −20° C. and internal standards (3), which were plasma fortified with [^14C]-glucose at one concentration (approximately 0.05 μCi/mL), were placed into the frozen blocks, prior to sectioning, and were used for section thickness quality control. A number of whole-body sections (approximately 40 μm thick) were taken in the sagittal plane at various levels of interest using a whole-body cryomicrotome set at −20° C. Sagittal sections (20-50 μm thick) of frozen carcasses were exposed to phosphor imaging plates. Regions of images in tissues were converted to concentrations using standards. All of the major tissues, organs, and biological fluids were represented.
Tissue concentration data was determined for the following tissues and/or contents: adipose (brown and white), adrenal gland, bile (in duct), blood (cardiac), bone, bone marrow, brain (cerebrum, cerebellum, medulla), cecum (and contents), large intestine (and contents), epididymis, esophagus, eye (uvea and lens), Harderian gland, heart, kidney (cortex and medulla), liver, lung, lymph node, pancreas, pituitary gland, prostate gland, salivary gland, seminal vesicles, skeletal muscle, skin (pigmented and non-pigmented), small intestine (and contents), stomach (gastric mucosa and contents), spleen, spinal cord, testis, thymus, thyroid, and urinary bladder (and contents).
The imaging plate and sections were placed in light-tight exposure cassettes, in a copper-lined lead safe, for a 4-day exposure at room temperature. […] Quantification was performed by image densitometry using MCD image analysis software (v. 7.0, Interfocus Imaging Ltd) and a standard curve constructed from the integrated response [i.e., Molecular Dynamics Counts per square millimeter (MDC/mm^2)] and the nominal concentrations of the ^14C-calibration standards. The concentrations of radioactivity were expressed as the μg equivalents of [^14C]brincidofovir per gram sample (μg equiv/g). A lower limit of quantification (LLOQ) was applied to the data (See section 6.7.4).
Tissue concentrations that fell below the LLOQ were identified as being below the quantification limit (BQL). Tissue areas that were not visualized on autoradiographic images were identified as no sample (NS) and reported as BQL.

## CCCCCCCCCCCCCCCCOCCCOP(=O)(O)CO[C@H](CO)Cn1ccc(N)nc1=O [[14C]brincidofovir]
Adipose (brown)
  AUCall: 24.3703 μg equiv · h/g
  AUCinf—obs: 24.4043 μg equiv · h/g
  Tmax: 4 h
  t1/2: 233.5 h
Adipose (white)
  AUCall: 1.1215 μg equiv · h/g
  AUCinf—obs: 2.4387 μg equiv · h/g
  Tmax: 4 h
Adipose (white), estimate (footnote a)
  t1/2: 17.6 h
Adrenal Gland
  AUCall: 74.5860 μg equiv · h/g
  AUCinf—obs: 58.7136 μg equiv · h/g
  Tmax: 8 h
  t1/2: 43.2 h
Blood (cardiac)
  AUCall: 21.9165 μg equiv · h/g
  AUCinf—obs: 22.3146 μg equiv · h/g
  Tmax: 8 h
Blood (cardiac), estimate (footnote a)
  t1/2: 32.8 h
Bone Marrow
  AUCall: 68.7413 μg equiv · h/g
  AUCinf—obs: 50.2191 μg equiv · h/g
  Tmax: 8 h
Bone Marrow, estimate (footnote a)
  t1/2: 96.3 h
Bone
  AUCall: 1.8470 μg equiv · h/g
  AUCinf—obs: 3.7274 μg equiv · h/g
  Tmax: 4 h
Bone, estimate (footnote a)
  t1/2: 53.9 h
Brain (cerebellum)
  AUCall: 0.8610 μg equiv · h/g
  Tmax: 8 h
Brain (cerebrum)
  AUCall: 0.7650 μg equiv · h/g
  Tmax: 8 h
Brain (medulla)
  AUCall: 0.5770 μg equiv · h/g
  Tmax: 4 h
Cecum
  AUCall: 174.4118 μg equiv · h/g
  AUCinf—obs: 142.1970 μg equiv · h/g
  Tmax: 8 h
Cecum, estimate (footnote a)
  t1/2: 69.9 h
Epididymis
  AUCall: 31.1150 μg equiv · h/g
  AUCinf—obs: 22.3936 μg equiv · h/g
  Tmax: 4 h
Epididymis, estimate (footnote a)
  t1/2: 89.0 h
Esophagus
  AUCall: 27.9015 μg equiv · h/g
  AUCinf—obs: 29.1559 μg equiv · h/g
  Tmax: 4 h
  t1/2: 37.2 h
Eye (uveal tract)
  AUCall: 16.2765 μg equiv · h/g
  AUCinf—obs: 19.8244 μg equiv · h/g
  Tmax: 8 h
Eye (uveal tract), estimate (footnote a)
  t1/2: 57.7 h
Harderian Gland
  AUCall: 63.7645 μg equiv · h/g
  AUCinf—obs: 50.8931 μg equiv · h/g
  Tmax: 8 h
Harderian Gland, estimate (footnote a)
  t1/2: 151.8 h
Heart
  AUCall: 31.1603 μg equiv · h/g
  AUCinf—obs: 23.2365 μg equiv · h/g
  Tmax: 8 h
Heart, estimate (footnote a)
  t1/2: 110.8 h
Kidney Cortex
  AUCall: 804.4980 μg equiv · h/g
  AUCinf—obs: 822.5076 μg equiv · h/g
  Tmax: 8 h
Kidney Cortex, estimate (footnote a)
  t1/2: 244.8 h
Kidney Medulla
  AUCall: 342.0130 μg equiv · h/g
  AUCinf—obs: 286.4307 μg equiv · h/g
  Tmax: 8 h
  t1/2: 41.2 h
Large Intestine
  AUCall: 140.3313 μg equiv · h/g
  AUCinf—obs: 123.4302 μg equiv · h/g
  Tmax: 8 h
Large Intestine, estimate (footnote a)
  t1/2: 37.6 h
Liver
  AUCall: 1426.6340 μg equiv · h/g
  AUCinf—obs: 1435.9700 μg equiv · h/g
  Tmax: 4 h
Liver, estimate (footnote a)
  t1/2: 190.3 h
Lung
  AUCall: 53.1145 μg equiv · h/g
  AUCinf—obs: 39.9962 μg equiv · h/g
  Tmax: 8 h
  t1/2: 93.0 h
Lymph Node
  AUCall: 85.04 μg equiv · h/g
  AUCinf—obs: 57.7701 μg equiv · h/g
  Tmax: 8 h
Lymph Node, estimate (footnote a)
  t1/2: 86.4 h
Pancreas
  AUCall: 10.3720 μg equiv · h/g
  AUCinf—obs: 12.7271 μg equiv · h/g
  Tmax: 4 h
  t1/2: 62.1 h
Pituitary Gland
  AUCall: 30.5073 μg equiv · h/g
  AUCinf—obs: 22.8331 μg equiv · h/g
  Tmax: 4 h
  t1/2: 106.2 h
Prostate Gland
  AUCall: 7.6578 μg equiv · h/g
  AUCinf—obs: 11.0471 μg equiv · h/g
  Tmax: 4 h
  t1/2: 70.1 h
Salivary Gland
  AUCall: 9.1933 μg equiv · h/g
  AUCinf—obs: 12.3800 μg equiv · h/g
  Tmax: 8 h
Salivary Gland, estimate (footnote a)
  t1/2: 67.4 h
Seminal Vesicles
  AUCall: 50.2500 μg equiv · h/g
  AUCinf—obs: 34.9600 μg equiv · h/g
  Tmax: 1 h
  t1/2: 64.7 h
Skeletal Muscle
  AUCall: 1.3265 μg equiv · h/g
  Tmax: 8 h
Skin (non-pigmented)
  AUCall: 14.0275 μg equiv · h/g
  AUCinf—obs: 20.6749 μg equiv · h/g
  Tmax: 8 h
Skin (non-pigmented), estimate (footnote a)
  t1/2: 93.7 h
Skin (pigmented)
  AUCall: 17.0405 μg equiv · h/g
  AUCinf—obs: 21.3144 μg equiv · h/g
  Tmax: 8 h
Skin (pigmented), estimate (footnote a)
  t1/2: 63.4 h
Small Intestine
  AUCinf—obs: 9585.0880 μg equiv · h/g
  Tmax: 4 h
  t1/2: 98.1 h
Small Intestine, 15 mg/kg
  AUCall: 9575.1810 μg equiv · h/g
Spinal Cord
  AUCall: 0.1110 μg equiv · h/g
  Tmax: 4 h
Spleen
  AUCall: 172.2208 μg equiv · h/g
  AUCinf—obs: 125.7566 μg equiv · h/g
  Tmax: 24 h
  t1/2: 115.4 h
Stomach (mucosa)
  AUCall: 90.7575 μg equiv · h/g
  AUCinf—obs: 80.6917 μg equiv · h/g
  Tmax: 2 h
  t1/2: 66.8 h
Testis
  AUCall: 30.3920 μg equiv · h/g
  AUCinf—obs: 21.7757 μg equiv · h/g
  Tmax: 8 h
Testis, estimate (footnote a)
  t1/2: 87.2 h
Thymus
  AUCall: 12.0843 μg equiv · h/g
  AUCinf—obs: 20.6983 μg equiv · h/g
  Tmax: 8 h
Thymus, estimate (footnote a)
  t1/2: 96.9 h
Thyroid
  AUCall: 31.3395 μg equiv · h/g
  AUCinf—obs: 21.8086 μg equiv · h/g
  Tmax: 4 h
  t1/2: 59.0 h
Urinary Bladder
  AUCall: 111.2445 μg equiv · h/g
  AUCinf—obs: 91.1627 μg equiv · h/g
  Tmax: 8 h
  t1/2: 49.7 h
